From US20170363612A1, “COMPOSITIONS AND METHODS RELATING TO PROLIFERATIVE DISORDERS” (Wayne State University, priority 2014, published 2017)
Several values for one entry are separate records, joined by “and”; a condition that tells them apart may be missing. Equal values may be shown once. Read-outs that look alike come from different tables or passages of the source.

Columns and labels:
topoisomerase I = molecular target: T1, topoisomerase I (Homo sapiens, UniProt P11387); settings: cited from earlier work
T1 sequence (P11387 1-765): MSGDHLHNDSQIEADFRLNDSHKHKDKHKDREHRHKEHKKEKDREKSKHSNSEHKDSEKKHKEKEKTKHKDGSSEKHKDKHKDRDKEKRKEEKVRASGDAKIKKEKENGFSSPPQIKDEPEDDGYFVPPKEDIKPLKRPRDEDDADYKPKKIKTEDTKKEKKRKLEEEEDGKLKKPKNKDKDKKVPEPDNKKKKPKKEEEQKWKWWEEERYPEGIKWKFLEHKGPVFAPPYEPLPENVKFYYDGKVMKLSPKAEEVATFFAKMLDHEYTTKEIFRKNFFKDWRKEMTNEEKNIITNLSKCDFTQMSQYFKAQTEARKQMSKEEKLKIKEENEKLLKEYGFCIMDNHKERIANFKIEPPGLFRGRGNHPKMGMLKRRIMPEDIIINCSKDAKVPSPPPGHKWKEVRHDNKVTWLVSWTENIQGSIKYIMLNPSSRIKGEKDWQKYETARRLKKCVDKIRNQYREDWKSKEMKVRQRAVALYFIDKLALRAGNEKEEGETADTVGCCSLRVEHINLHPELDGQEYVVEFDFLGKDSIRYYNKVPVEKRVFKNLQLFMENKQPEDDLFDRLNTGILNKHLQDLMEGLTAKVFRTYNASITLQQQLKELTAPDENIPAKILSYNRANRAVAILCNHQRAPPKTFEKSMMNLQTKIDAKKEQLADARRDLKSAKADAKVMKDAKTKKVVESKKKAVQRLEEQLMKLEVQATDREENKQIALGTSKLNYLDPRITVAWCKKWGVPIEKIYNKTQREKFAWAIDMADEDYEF

SET Ribosome [1] = assay: CremophorEL Cell Count Dose Response Assay, HEK293 TR cell lines; type: cell-based, human; settings: HEK293 mTRdm-fLUC#12; 100 nM TPA
SET Ribosome [2] = assay: TR SET Assay (TPA Reference Standard) on HCT116 TR Cell Panel before and after nonadherent tumorsphere growth; type: cell-based, human; set-up: concentration or dose not given beside the values; settings: for SET Activity (day 0): TPA Reference Standard; for SET Activity (post-growth): TPA, after 32 days tumorsphere growth and 14 days replating
SET Ribosome [3] = test system: SET Ribosome
SET Ribosome [4] = assay: Topotecan dose response assay, MCF7 TR Cell Panel; type: cell-based, human
[5] = in vivo, po; cited from earlier work
SET Ribosome [6] = assay: Topotecan Modifier Assay on TPA Reference Standard response, HEK293 TR cell lines; type: cell-based, human; settings: HEK293 hTRdm-fLUC#13 and mTRdm-fLUC#45; with 100 nM TPA; 6 hours
LD50 in mice (quoted) = settings: oral 0.000054 mg/kg/day vs mouse LD50
[7] = cited from earlier work
LD50 in rats (quoted) = settings: oral 0.00013 mg/kg/day
[8] = cited from earlier work; remark: listed apart in the source
SET Ribosome [9] = assay: TPA Reference Standard Response Modifier Assay with ribosome binding translation inhibitors, HEK293 hTRdm-fLUC#13; type: cell-based, human; settings: with 100 nM TPA, 6 hours
PKC = settings: cited from earlier work

CCc1c2c(nc3ccc(O)cc13)-c1cc3c(c(=O)n1C2)COC(=O)[C@]3(O)CC [SN-38, 7-ethyl-10-hydroxy-camptothecin]
potency relative to irinotecan (topoisomerase I): 1000 X

CCCCCCCCCCCCCC(=O)O[C@@H]1[C@@H](C)[C@@]2(O)[C@@H](C=C(CO)C[C@]3(O)C(=O)C(C)=C[C@@H]23)[C@@H]2C(C)(C)[C@]12OC(C)=O [TPA, 12-O-tetradecanoylphorbol-13-acetate]
SET increase (SET Ribosome [1]): > 2000% | SET Activity (day 0) (SET Ribosome [2]; HCT116 mTRdm-fLUC#17): 226.3% | SET Activity (post-growth) (SET Ribosome [2]; HCT116 mTRdm-fLUC#17): 366.0% | SET Activity (day 0) (SET Ribosome [2]; HCT116 mTRdm-fLUC#25): 336.6% | SET Activity (post-growth) (SET Ribosome [2]; HCT116 mTRdm-fLUC#25): 26,675.6% | SET Activity (day 0) (SET Ribosome [2]; HCT116 mTRdm-fLUC#28): 1,365.5% | SET Activity (post-growth) (SET Ribosome [2]; HCT116 mTRdm-fLUC#28): 20,492.8% | SET Activity (day 0) (SET Ribosome [2]; HCT116 mTRdm-fLUC#36): 875.3% | SET Activity (post-growth) (SET Ribosome [2]; HCT116 mTRdm-fLUC#36): 3,926.9% | SET Activity (day 0) (SET Ribosome [2]; HCT116 mTRdm-fLUC#47): 237.5% | SET Activity (post-growth) (SET Ribosome [2]; HCT116 mTRdm-fLUC#47): 1,434.3% | SET Activity (day 0) (SET Ribosome [2]; HCT116 mTRdm-fLUC#49): 329.4% | SET Activity (post-growth) (SET Ribosome [2]; HCT116 mTRdm-fLUC#49): 2,015.4% | SET Activity (day 0) (SET Ribosome [2]; HCT116 mTRdm-fLUC#52): 261.1% | SET Activity (post-growth) (SET Ribosome [2]; HCT116 mTRdm-fLUC#52): 920.0% | SET Activity (day 0) (SET Ribosome [2]; HCT116 mTRdm-fLUC#58): 324.4% | SET Activity (post-growth) (SET Ribosome [2]; HCT116 mTRdm-fLUC#58): 636.6% | SET Activity (day 0) (SET Ribosome [2]; HCT116 mTRdm-fLUC#75): 693.1% | SET Activity (post-growth) (SET Ribosome [2]; HCT116 mTRdm-fLUC#75): 19,413.0% | SET Activity (day 0) (SET Ribosome [2]; HCT116 mTRdm-fLUC#139): 114.8% | SET Activity (post-growth) (SET Ribosome [2]; HCT116 mTRdm-fLUC#139): 311.9% | SET Activity (day 0) (SET Ribosome [2]; HCT116 mTRdm-fLUC#156): 462.3% | SET Activity (post-growth) (SET Ribosome [2]; HCT116 mTRdm-fLUC#156): 3,673.3% | SET Activity (day 0) (SET Ribosome [2]; HCT116 mTRdm-fLUC#190): 204.4% | SET Activity (post-growth) (SET Ribosome [2]; HCT116 mTRdm-fLUC#190): 178.3% | SET Activity (day 0) (SET Ribosome [2]; HCT116 mTRdm-fLUC#220): 115.5% | SET Activity (post-growth) (SET Ribosome [2]; HCT116 mTRdm-fLUC#220): 81.8% | SET Response (SET Ribosome [3]): Agonist

CC[C@@]1(O)C(=O)OCc2c1cc1n(c2=O)Cc2cc3c(CN(C)C)c(O)ccc3nc2-1.Cl [Topotecan, (S)-10-[(dimethylamino)methyl]-4-ethyl-4,9-dihydroxy-1H-pyrano[3′,4′:6,7]indolizino[1,2-b]quinoline-3,14(4H,12H)-dione monohydrochloride]
IC100 (SET Ribosome [4]; MCF7 TR Cell Panel): > 5 µM | dose of maximal SET response (SET Ribosome [4]; MCF7 TR Cell Panel): 10 nM | dose range of SET Agonist activity (SET Ribosome [4]; MCF7 TR Cell Panel): 2 to 100 nM | concentrations giving complete SET Ribosome block (SET Ribosome [4]; MCF7 TR Class 3 and Class 4 lines, 6 hours): ≥ 5 µM | oral bioavailability [5]: ~40% | time of peak plasma concentration post-administration [5]: 1 to 2 h | SET Response (SET Ribosome [3]; High dose (HD) 10 uM): Antagonist | SET Response (SET Ribosome [3]; Low dose (LD): Calon 1 uM, Topotecan 100 nM): Agonist | doses completely blocking SET Ribosome activity (SET Ribosome [6]): > 5 µM

COc1ccc(C[C@H]2NC[C@H](O)[C@H]2OC(C)=O)cc1 [anisomycin, (2R,3S,4S)-4-hydroxy-2-(4-methoxybenzyl)-pyrrolidin-3-yl acetate]
factor by which the IC100 dose is lower than a toxic concentration (LD50 in mice (quoted)): > 14,000 × | LD50 ([7]; route not stated): 75 to 200 mg/kg

CC[C@H]1CN2CCc3cc(OC)c(OC)cc3[C@@H]2C[C@@H]1C[C@H]1NCCc2cc(OC)c(OC)cc21 [emetine, (2S, 3R, 11bS)-2-{{(1R)-6,7-dimethoxy-1,2,3,4-tetrahydroisoquinolin-1-yl]methyl}-3-ethyl-9,10-dimethoxy-2,3,4,6,7,11b-hexahydro-1H-pyrido[2,1-a] isoquinoline]
factor by which the IC100 dose is lower than the rat LD50 (LD50 in rats (quoted)): > 5,231 × | LD50 ([7]; subcutaneous): 58 µM | LD50 ([8]; intravenous): 5 µM | LD50 ([8]; oral): 35 µM | IC50 (SET Ribosome [9]; Homo sapiens, HEK293, read-out: IC50, SET ribosome inhibition): 0.175 µM | IC100 (100% SET Ribosome inhibition) (SET Ribosome [9]): 2.5 µM and 2.5 to 10 µM

Bryostatin 2
enzyme binding constant relative to bryostatin 1 (PKC): 10 times
